From US20080226571A1, “Compositions and methods to effect enhanced photoprotection against UV A and UV B induced damage of human skin” (priority 2007, published 2008)
Marks after values point to notes of the source that are not given here.

Test system: B16F1 mouse melanoma cells
Assay: Intracellular melanin enhancement
Format: cell-based
Details: for Folds of Melanin Enhancement compared to control: Table E; for melanin enhancement activity, comparison in words: Tables C and E
Protocol: B16F1 mouse melanoma cells are treated with varying concentrations of actives I, II and III and other optional actives or combinations thereof at a time interval of 3 days for nine consecutive days. The intracellular melanin in both the controls and test B16F1 mouse melanoma cells is extracted by 1 N NaOH and subjected to a heat treatment at 100° C. The extracted melanin is estimated at 405 nm in a Fluostar Optima Microplate Reader.

Row | Structure (SMILES) | Folds of Melanin Enhancement compared to control (0.25 μg/ml) | Folds of Melanin Enhancement compared to control (0.5 μg/ml) | Folds of Melanin Enhancement compared to control (1 μg/ml) | Folds of Melanin Enhancement compared to control (2 μg/ml) | Folds of Melanin Enhancement compared to control (3 μg/ml) | Folds of Melanin Enhancement compared to control (5 μg/ml) | Folds of Melanin Enhancement compared to control (12 μg/ml) | melanin enhancement activity, comparison in words
1 | C=CC1(C)CC(=O)C2C3(C)CCCC(C)(C)C3C(O)C(OC(C)=O)C2(C)O1 (stereo not drawn) [7β-Acetoxy-6β-hydroxy-8,13-epoxy-labd-14-en-11-one] | 1.1 Folds | 1.13 Folds | 1.4* Folds | 2* Folds | 2.1* Folds | 2.2* Folds | 3* Folds | comparable to that of active 3
2 | C=C[C@@]1(C)CC(=O)[C@]2(O)[C@@]3(C)CCCC(C)(C)[C@@H]3[C@H](O)[C@H](OC(C)=O)[C@@]2(C)O1 [7β-Acetoxy-6β,9α-dihydroxy-8,13-epoxy-labd-14-en-11-one] | 1 Folds | 1.1 Folds | 1.5* Folds | 1.8* Folds | 2.2* Folds | 2.8* Folds | 3.2* Folds | comparable to that of active 3
3 | COc1c2occc2cc2ccc(=O)oc12 [Active 8-MOP, 8-Methoxy psoralen] | 1.12 Folds | 1.25 Folds | 1.4* Folds | toxic | toxic | toxic | toxic | comparable to active III but inferior to active I
4 | CC1(C)[C@@H](O[C@H]2O[C@H](C(=O)O)[C@@H](O)[C@H](O)[C@H]2O[C@@H]2O[C@H](C(=O)O)[C@@H](O)[C@H](O)[C@H]2O)CC[C@]2(C)[C@H]3C(=O)C=C4[C@@H]5C[C@@](C)(C(=O)O)CC[C@]5(C)CC[C@@]4(C)[C@]3(C)CC[C@@H]12 [Glycyrrhizin] | 1.82* Folds | 2.25* Folds | 2.58* Folds | 2.76* Folds | 2.88* Folds | 2.92* Folds | 2.95* Folds | comparable to active III but inferior to active I
5 | C/C=C1\C(=O)C[C@H]2[C@@H]3CCC4=CC(=O)CC[C@]4(C)[C@H]3CC[C@]12C [Gugulsterone, Guggulsterone] | 1.15 Folds | 1.25 Folds | 1.28 Folds | 1.38 Folds | 2.38* Folds | 2.45* Folds | 2.5* Folds | comparable to active III but inferior to active I
6 | CC(C)=CCOc1c2occc2cc2ccc(=O)oc12 [Imperatorin] | 1.08 Folds | 1.25 Folds | 1.58* Folds | 1.78* Folds | 2.58* Folds | toxic | toxic | comparable to active III but inferior to active I
7 | COc1c2ccoc2cc2oc(=O)ccc12 [Active 5-MOP, 5-methoxy psoralen] | 1.1 Folds | 1.15 Folds | 1.5* Folds | toxic | toxic | toxic | toxic | comparable to active III but inferior to active I
